From patent US20240366770A1, “DEGRADATION OF BRUTON'S TYROSINE KINASE (BTK) BY CONJUGATION OF BTK INHIBITORS WITH E3 LIGASE LIGAND AND METHODS OF USE” (BeiGene Switzerland GmbH, priority 2021, published 2024)
Where two headings read alike, the source gives them in different places.

Experiments:
HEK-293 cells = assay: HEK-293 cytotoxicity detection (CellTiter-Glo); format: cell-based; settings: HEK-293 cells, 72 h incubation, CellTiter-Glo luminescence, IC50 of cell proliferation inhibition, read-out: HEK293
Method in brief: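 Four-parameter logistic fitting of percent inhibition versus concentration gives IC50. Luminescent ATP read-out (CellTiter-Glo) after 72 h compound treatment of HEK-293 cells, 8 doses in 4-fold steps from a 5 mM 500× DMSO stock, final DMSO 0.2%.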

BTK = target: T1, BTK (Homo sapiens, UniProt Q06187); assay: BTK degradation in TMD-8 cells (HTRF assay); format: cell-based; settings: 6 h treatment, IC50 (DC50) of BTK degradation
T1 construct: High control=Cell group with added DMSO and without compound, indicating microplate readings without BTK degradation; endogenous in cells; host or cells: TMD-8
T1 sequence (Q06187 whole entry): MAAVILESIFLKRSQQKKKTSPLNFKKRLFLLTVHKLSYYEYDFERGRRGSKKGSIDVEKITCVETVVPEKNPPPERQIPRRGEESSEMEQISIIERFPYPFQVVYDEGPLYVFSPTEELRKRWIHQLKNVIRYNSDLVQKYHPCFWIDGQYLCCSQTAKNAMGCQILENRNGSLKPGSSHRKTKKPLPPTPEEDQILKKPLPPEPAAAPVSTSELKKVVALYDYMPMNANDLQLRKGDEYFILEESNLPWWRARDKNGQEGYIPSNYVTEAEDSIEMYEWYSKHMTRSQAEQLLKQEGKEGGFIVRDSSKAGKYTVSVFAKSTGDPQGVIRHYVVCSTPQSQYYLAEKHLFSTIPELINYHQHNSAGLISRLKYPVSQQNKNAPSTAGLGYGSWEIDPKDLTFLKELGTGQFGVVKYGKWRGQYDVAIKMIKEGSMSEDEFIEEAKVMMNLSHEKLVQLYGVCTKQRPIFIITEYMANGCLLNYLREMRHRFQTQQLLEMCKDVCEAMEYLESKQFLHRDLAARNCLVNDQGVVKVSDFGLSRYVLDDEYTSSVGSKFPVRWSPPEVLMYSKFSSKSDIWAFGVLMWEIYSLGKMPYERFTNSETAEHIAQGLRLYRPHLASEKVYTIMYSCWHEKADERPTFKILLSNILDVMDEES
Method in brief: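 BTK remaining after compound treatment was measured by HTRF (337 nm excitation, 665/620 nm emission) in lysates of TMD-8 cells. Cells were exposed for 6 h to eight 6-fold-spaced concentrations in 0.2% DMSO. DC50 values were obtained from a Hill-equation fit (top, bottom, slope) of % inhibition.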

Row | Structure (SMILES) | IC50 (HEK-293 cells; Homo sapiens) [nM] | DC50 (BTK) [nM] | IC50 (HEK-293 cells) [nM]
1 | Cc1cc(-c2ncnc3[nH]c4cc(N5CCN(C6CC(c7ccc([C@H]8CCC(=O)NC8=O)cc7)C6)CC5)ccc4c23)c(F)cc1[C@@H](C)NC(=O)c1nc(C2(C)CC2)no1 (stereo partly drawn) [Example 96, N—((R)-1-(4-(7-(4-(3-(4-((R)-2,6-dioxopiperidin-3-yl)phenyl)cyclobutyl)piperazin-1-yl)-9H-pyrimido[4,5-b]indol-4-yl)-5-fluoro-2-methylphenyl)ethyl)-3-(1-methylcyclopropyl)-1,2,4-oxadiazole-5-carboxamide] | > 10000 | 2.98 | –
2 | Cc1c([C@@H](C)NC(=O)c2noc(C(C)(C)C)n2)ccc(-c2ncnc3[nH]c4cc(N5CCC(CN6CCC(c7ccc(C8CCC(=O)NC8=O)cc7)CC6)CC5)ccc4c23)c1F (stereo partly drawn) [Example 36, 5-(tert-butyl)-N-((1R)-1-(4-(7-(4-((4-(4-(2,6-dioxopiperidin-3-yl)phenyl)piperidin-1-yl)methyl)piperidin-1-yl)-9H-pyrimido[4,5-b]indol-4-yl)-3-fluoro-2-methylphenyl)ethyl)-1,2,4-oxadiazole-3-carboxamide] | 3410 | 0.804 | –
3 | COc1cc2c(cc1N1CCN(Cc3ccc4c(c3)n(C)c(=O)n4C3CCC(=O)NC3=O)CC1)[nH]c1ncnc(-c3ccc([C@@H](C)NC(=O)c4nc(C(C)(C)C)no4)c(C)c3F)c12 (stereo partly drawn) [Example 71, 3-(tert-butyl)-N-((1R)-1-(4-(7-(4-((1-(2,6-dioxopiperidin-3-yl)-3-methyl-2-oxo-2,3-dihydro-1H-benzo[d]imidazol-5-yl)methyl)piperazin-1-yl)-6-methoxy-9H-pyrimido[4,5-b]indol-4-yl)-3-fluoro-2-methylphenyl)ethyl)-1,2,4-oxadiazole-5-carboxamide] | > 10000 | 9.24 | –
4 | Cc1cc(-c2ncnc3[nH]c4cc(N5CCN(CCc6ccc(C7CCC(=O)NC7=O)c(C)n6)CC5)ccc4c23)ccc1[C@@H](C)NC(=O)c1nc(C(C)(C)C)no1 (stereo partly drawn) [Example 16, 3-(tert-butyl)-N-((1R)-1-(4-(7-(4-(2-(5-(2,6-dioxopiperidin-3-yl)-6-methylpyridin-2-yl)ethyl)piperazin-1-yl)-9H-pyrimido[4,5-b]indol-4-yl)-2-methylphenyl)ethyl)-1,2,4-oxadiazole-5-carboxamide] | > 10000 | 0.347 | –
5 | Cc1cc(-c2ncnc3[nH]c4cc(N5CCN(CC6CCN(c7ccc(N8CCC(=O)NC8=O)cc7)CC6)CC5)c(C)cc4c23)c(F)cc1[C@@H](C)NC(=O)c1noc(C(C)(C)C)n1 [Example 44, (R)-5-(tert-butyl)-N-(1-(4-(7-(4-((1-(4-(2,4-dioxotetrahydropyrimidin-1(2H)-yl)phenyl)piperidin-4-yl)methyl)piperazin-1-yl)-6-methyl-9H-pyrimido[4,5-b]indol-4-yl)-5-fluoro-2-methylphenyl)ethyl)-1,2,4-oxadiazole-3-carboxamide] | > 10000 | 1.38 | –
6 | Cc1c([C@@H](C)NC(=O)c2noc(C(C)(C)C)n2)ccc(-c2ncnc3[nH]c4cc(N5CCN(Cc6ccc7c(c6)C(C)(C)C(=O)N7C6CCC(=O)NC6=O)CC5)ccc4c23)c1F (stereo partly drawn) [Example 86, 5-(tert-butyl)-N-((1R)-1-(4-(7-(4-((1-(2,6-dioxopiperidin-3-yl)-3,3-dimethyl-2-oxoindolin-5-yl)methyl)piperazin-1-yl)-9H-pyrimido[4,5-b]indol-4-yl)-3-fluoro-2-methylphenyl)ethyl)-1,2,4-oxadiazole-3-carboxamide] | > 10000 | > 2000 | –
7 | Cc1cc(-c2ncnc3[nH]c4cc(N5CCC6(CCN(CC7CCN(c8ccc(N9CCC(=O)NC9=O)cc8)CC7)C6)CC5)ccc4c23)ccc1[C@@H](C)NC(=O)c1nc(C(C)(C)C)no1 [Example 100, (R)-3-(tert-butyl)-N-(1-(4-(7-(2-((1-(4-(2,4-dioxotetrahydropyrimidin-1(2H)-yl)phenyl)piperidin-4-yl)methyl)-2,8-diazaspiro[4.5]decan-8-yl)-9H-pyrimido[4,5-b]indol-4-yl)-2-methylphenyl)ethyl)-1,2,4-oxadiazole-5-carboxamide] | 3420 | 1.02 | –
8 | Cc1cc(-c2ncnc3[nH]c4cc(N5CCC6(CC5)CCN(C5CC(c7ccc(N[C@@H]8CCC(=O)NC8=O)cc7)C5)CC6)ccc4c23)ccc1[C@@H](C)NC(=O)c1nc(C(C)(C)C)no1 (stereo partly drawn) [Example 107, 3-(tert-butyl)-N—((R)-1-(4-(7-(9-((1S,3r)-3-(4-(((S)-2,6-dioxopiperidin-3-yl)amino)phenyl)cyclobutyl)-3,9-diazaspiro[5.5]undecan-3-yl)-9H-pyrimido[4,5-b]indol-4-yl)-2-methylphenyl)ethyl)-1,2,4-oxadiazole-5-carboxamide] | – | 2.99 | 1030
9 | Cc1cc(-c2ncnc3[nH]c4cc(N5CCN(CC6CCN(c7ccc(N8CCC(=O)NC8=O)c(C)c7)CC6)CC5)ccc4c23)c(F)cc1[C@@H](C)NC(=O)c1noc(C(C)(C)C)n1 [Example 24, (R)-5-(tert-butyl)-N-(1-(4-(7-(4-((1-(4-(2,4-dioxotetrahydropyrimidin-1(2H)-yl)-3-methylphenyl)piperidin-4-yl)methyl)piperazin-1-yl)-9H-pyrimido[4,5-b]indol-4-yl)-5-fluoro-2-methylphenyl)ethyl)-1,2,4-oxadiazole-3-carboxamide] | > 10000 | 0.47 | –
10 | Cc1cc(-c2ncnc3[nH]c4cc(N5CCN(CCc6cccc7c6C6(CC6)C(=O)N7C6CCC(=O)NC6=O)CC5)ccc4c23)ccc1[C@@H](C)NC(=O)c1nc(C2(C)CC2)no1 (stereo partly drawn) [Example 124, N-((1R)-1-(4-(7-(4-(2-(1′-(2,6-dioxopiperidin-3-yl)-2′-oxospiro[cyclopropane-1,3′-indolin]-4′-yl)ethyl)piperazin-1-yl)-9H-pyrimido[4,5-b]indol-4-yl)-2-methylphenyl)ethyl)-3-(1-methylcyclopropyl)-1,2,4-oxadiazole-5-carboxamide] | > 10000 | 0.838 | –
11 | COc1cc2c(cc1N1CCN(CC3CCN(c4ccc(N5CCC(=O)NC5=O)cc4)CC3)CC1)[nH]c1ncnc(-c3ccc([C@@H](C)NC(=O)c4nc(C(C)(C)C)no4)c(C)c3)c12 [Example 46, (R)-3-(tert-butyl)-N-(1-(4-(7-(4-((1-(4-(2,4-dioxotetrahydropyrimidin-1(2H)-yl)phenyl)piperidin-4-yl)methyl)piperazin-1-yl)-6-methoxy-9H-pyrimido[4,5-b]indol-4-yl)-2-methylphenyl)ethyl)-1,2,4-oxadiazole-5-carboxamide] | > 10000 | 0.366 | –
12 | Cc1cc(-c2ncnc3[nH]c4cc(N5CCN([C@H]6C[C@H](c7ccc(N[C@@H]8CCC(=O)NC8=O)cc7)C6)CC5)ccc4c23)ccc1[C@@H](C)NC(=O)c1nc(C2(C)CC2)no1 [Example 117, N—((R)-1-(4-(7-(4-((1R,3r)-3-(4-(((R)-2,6-dioxopiperidin-3-yl)amino)phenyl)cyclobutyl)piperazin-1-yl)-9H-pyrimido[4,5-b]indol-4-yl)-2-methylphenyl)ethyl)-3-(1-methylcyclopropyl)-1,2,4-oxadiazole-5-carboxamide] | > 10000 | 0.981 | –
13 | Cc1cc(-c2ncnc3[nH]c4cc(N5CCN(C6CC(c7ccc([C@H]8CCC(=O)NC8=O)cc7)C6)CC5)ccc4c23)c(F)cc1[C@@H](C)NC(=O)c1nc(C(C)(C)C)no1 (stereo partly drawn) [Example 26, 3-(tert-butyl)-N—((R)-1-(4-(7-(4-(3-(4-((R)-2,6-dioxopiperidin-3-yl)phenyl)cyclobutyl)piperazin-1-yl)-9H-pyrimido[4,5-b]indol-4-yl)-5-fluoro-2-methylphenyl)ethyl)-1,2,4-oxadiazole-5-carboxamide] | > 10000 | 2.2 | –
14 | Cc1c([C@@H](C)NC(=O)c2noc(C(C)(C)C)n2)ccc(-c2ncnc3[nH]c4cc(N5CCN(CCc6ccc(SC7CCC(=O)NC7=O)cc6)CC5)ccc4c23)c1F (stereo partly drawn) [Example 80, 5-(tert-butyl)-N-((1R)-1-(4-(7-(4-(4-((2,6-dioxopiperidin-3-yl)thio)phenethyl)piperazin-1-yl)-9H-pyrimido[4,5-b]indol-4-yl)-3-fluoro-2-methylphenyl)ethyl)-1,2,4-oxadiazole-3-carboxamide] | > 10000 | 16.6 | –
15 | Cc1cc(-c2ncnc3[nH]c4cc(N5CCN([C@H]6C[C@@H](c7ccc(NC8CCC(=O)NC8=O)cc7)C6)CC5)ccc4c23)ccc1[C@@H](C)NC(=O)c1nc(C2(C)CC2)no1 (stereo partly drawn) [Example 115, N-((1R)-1-(4-(7-(4-((1s,3s)-3-(4-((2,6-dioxopiperidin-3-yl)amino)phenyl)cyclobutyl)piperazin-1-yl)-9H-pyrimido[4,5-b]indol-4-yl)-2-methylphenyl)ethyl)-3-(1-methylcyclopropyl)-1,2,4-oxadiazole-5-carboxamide] | > 10000 | 0.759 | –
16 | C[C@H]1CC[C@@H](NC(=O)c2nc(C(C)(C)C)no2)CN1c1ncnc2[nH]c3cc(N4CCN(CC5CCN(c6ccc(N7CCC(=O)NC7=O)cc6)CC5)CC4)ccc3c12 [Example 129, 3-(tert-butyl)-N-((3R,6S)-1-(7-(4-((1-(4-(2,4-dioxotetrahydropyrimidin-1(2H)-yl)phenyl)piperidin-4-yl)methyl)piperazin-1-yl)-9H-pyrimido[4,5-b]indol-4-yl)-6-methylpiperidin-3-yl)-1,2,4-oxadiazole-5-carboxamide] | 2040 | > 2000 | –
